{"source": "paper PMC7064328", "about": "(Environmental Health Perspectives, 2020)", "tested_on": "Pregnant CD-1 mice", "assay": "Maternal indices: dam body weight, gestational weight gain, liver and kidney weight after daily oral gavage E1.5 to E11.5 or E17.5", "type": "in vivo, mouse (CD-1)", "conditions": "for E0.5 weight: baseline; for Relative GWG, E11.5 estimate (95% CI) / Relative GWG, E17.5 Estimate (95% CI) / Relative GWG, E11.5 Estimate (95% CI) relative to VC: adjusted for litter size", "experimental": "Naïve female CD-1 mice between 7.5 and 15.5 wk of age from the NIEHS colony were bred in-house on a single night, and copulatory plug–positive females were identified on embryonic day (E) 0.5. Pregnant dams were singly housed in ventilated polypropylene cages and received nesting materials, National Institutes of Health (NIH)-31 diet (Zeigler Bros., Inc.) and reverse osmosis deionized (RODI) water ad libitum. Animals were housed in humidity- and temperature-controlled rooms with 25°C and 45–60% average humidity and standard 12-h light cycles. All animal procedures were approved by the NIEHS Animal Care and Use Committee (ASP #2017-0022).\nPFOA and GenX dosing solutions were prepared in RODI water and administered to mice once daily via oral gavage. Daily doses were administered between 0700 and 0800 hours and adjusted to the BW of the mouse based on the previous day’s weight at a volume of 0.01mL/g BW. […] The dose of 1mg/kg BW/d PFOA, used in the mouse developmental toxicity study of [Lau et al. 2006], provided a lowest effect dose that was used to set the reference dose within the U.S. EPA’s drinking water lifetime health advisory level (HAL) of 70 ppt PFOA ([U.S. EPA 2016]).\nThis experiment was conducted over two blocks (Block 1 and Block 2) to achieve a total of n=11–13 litters per treatment group and sacrifice time point (E11.5 and E17.5). The experimental design of the second block was identical to the first block of the study, and experimental methods were similar but expanded upon to include more rigorous and detailed measurements. Copulatory plug–positive mice (E0.5) were weighed to obtain a baseline BW and placed into one of five groups. Once all mice were assigned to groups, mean BWs were calculated, and a few animals were reassigned so that mean BWs in each group were similar. This was done to avoid confounding effects of baseline BW. Treatment groups were then randomly assigned a color by using a random sequence generator. Experimenters and dosing technicians were blinded to the treatment group to which the color groups corresponded throughout the duration of the study, including at necropsy. […] Pregnant dams were dosed via oral gavage from E1.5 to E11.5 or from E1.5 to E17.5. […] The E11.5 early-gestation time point was selected because it overlaps a critical period of placental development in the mouse where the placenta undergoes vascularization with the uterine wall and chorioallantoic branching of vessels begins ([Watson and Cross 2005]). The E17.5 late-gestation time point was selected so that embryo weight changes that may be related to treatment would be evident.\nOn the day of necropsy, dams received daily oral gavage between 0700 and 0800 hours and were weighed and then euthanized humanely by swift decapitation, and serum was collected. In Block 1, necropsies were completed from 0800 to 1600 hours, and in Block 2, necropsies were completed from 0800 to 1200 hours. Serum from dams euthanized in Block 1 was snap frozen for internal dosimetry analyses. Serum and urine from Block 2 dams were reserved for clinical chemistry analyses. In both blocks, the uterus was removed, and total implantation sites were counted based on gross observation of an implantation nodule along the uterine horn. Viable embryos, nonviable embryos, and sites of resorption were counted based on gross observation. Embryos were considered viable if they were properly formed, were not pale in color, and were of similar size to neighboring embryos. Embryos that were poorly formed and pale in color (without heartbeat) were considered nonviable. Sites of resorption were defined as a dark red–appearing clot-like nodule apparent on gross observation.\nFrom each uterus, first, viable embryos and their matched placentas were collected in succession within a horn and immediately snap frozen ( n=2–5 per litter ), and subsequent embryos were collected for growth measurements ( n=2–11 per litter ). […]", "note": "Where “and” joins values, the source holds several entries; their conditions need not be identical. Equal values may be shown once."}
{"smiles": "N.O=C(O)C(F)(OC(F)(F)C(F)(F)C(F)(F)F)C(F)(F)F", "note": "(centres unmarked) [GenX, ammonium 2,3,3,3-tetrafluoro-2-(heptafluoropropoxy)propanoate]", "values": [{"measurement": "Kidney weight", "setting": "E11.5, 2 mg/kg/d", "result": "0.22 ± 0.02", "unit": "g"}, {"measurement": "Liver weight", "setting": "E11.5, 2 mg/kg/d", "result": "3.1 ± 0.2", "unit": "g"}, {"measurement": "Weight at necropsy", "setting": "E11.5, 2 mg/kg/d", "result": "38.3 ± 3.2", "unit": "g"}, {"measurement": "Weight at necropsy (% change from E0.5)", "setting": "E11.5, 2 mg/kg/d", "result": "28.9±5.4", "unit": "%"}, {"measurement": "Kidney weight", "setting": "E11.5, 10 mg/kg/d", "result": "0.23 ± 0.06", "unit": "g"}, {"measurement": "Liver weight", "setting": "E11.5, 10 mg/kg/d", "result": "4.2 ± 0.5", "unit": "g"}, {"measurement": "Weight at necropsy", "setting": "E11.5, 10 mg/kg/d", "result": "40.0 ± 2.5", "unit": "g"}, {"measurement": "Weight at necropsy (% change from E0.5)", "setting": "E11.5, 10 mg/kg/d", "result": "32.3±9.6", "unit": "%"}, {"measurement": "E0.5 weight", "setting": "E11.5 group, 2 mg/kg/d", "result": "29.7 ± 2.2", "unit": "g"}, {"measurement": "E0.5 weight", "setting": "E11.5 group, 10 mg/kg/d", "result": "30.7 ± 2.5", "unit": "g"}, {"measurement": "Kidney weight", "setting": "E17.5, 2 mg/kg/d", "result": "0.21 ± 0.02", "unit": "g"}, {"measurement": "Liver weight", "setting": "E17.5, 2 mg/kg/d", "result": "3.5 ± 0.5", "unit": "g"}, {"measurement": "Weight at necropsy", "setting": "E17.5, 2 mg/kg/d", "result": "55.4 ± 6.5", "unit": "g"}, {"measurement": "Weight at necropsy (% change from E0.5)", "setting": "E17.5, 2 mg/kg/d", "result": "97.3±15.2", "unit": "%"}, {"measurement": "Kidney weight", "setting": "E17.5, 10 mg/kg/d", "result": "0.25 ± 0.02", "unit": "g"}, {"measurement": "Liver weight", "setting": "E17.5, 10 mg/kg/d", "result": "4.6 ± 0.4", "unit": "g"}, {"measurement": "Weight at necropsy", "setting": "E17.5, 10 mg/kg/d", "result": "56.7 ± 5.5", "unit": "g"}, {"measurement": "Weight at necropsy (% change from E0.5)", "setting": "E17.5, 10 mg/kg/d", "result": "98.5±15.7", "unit": "%"}, {"measurement": "E0.5 weight", "setting": "E17.5 group, 2 mg/kg/d", "result": "28.2 ± 3.5", "unit": "g"}, {"measurement": "E0.5 weight", "setting": "E17.5 group, 10 mg/kg/d", "result": "28.7 ± 3.6", "unit": "g"}]}
{"smiles": "O=C(O)C(F)(F)C(F)(F)C(F)(F)C(F)(F)C(F)(F)C(F)(F)C(F)(F)F", "note": "[PFOA, Perfluorooctanoic acid]", "values": [{"measurement": "Kidney weight", "setting": "E11.5, 1 mg/kg/d", "result": "0.20 ± 0.02", "unit": "g"}, {"measurement": "Liver weight", "setting": "E11.5, 1 mg/kg/d", "result": "2.9 ± 0.2", "unit": "g"}, {"measurement": "Relative kidney weight", "setting": "E11.5, 1 mg/kg/d", "result": "0.51±0.04", "unit": "% BW"}, {"measurement": "Relative liver weight", "setting": "E11.5, 1 mg/kg/d", "result": "7.4±0.5", "unit": "% BW"}, {"measurement": "Weight at necropsy", "setting": "E11.5, 1 mg/kg/d", "result": "38.8 ± 2.4", "unit": "g"}, {"measurement": "Weight at necropsy (% change from E0.5)", "setting": "E11.5, 1 mg/kg/d", "result": "24.7±6.3", "unit": "%"}, {"measurement": "Kidney weight", "setting": "E11.5, 5 mg/kg/d", "result": "0.21 ± 0.03", "unit": "g"}, {"measurement": "Liver weight", "setting": "E11.5, 5 mg/kg/d", "result": "4.5 ± 0.5", "unit": "g"}, {"measurement": "Relative kidney weight", "setting": "E11.5, 5 mg/kg/d", "result": "0.51±0.05", "unit": "% BW"}, {"measurement": "Relative liver weight", "setting": "E11.5, 5 mg/kg/d", "result": "11.0±0.9", "unit": "% BW"}, {"measurement": "Weight at necropsy", "setting": "E11.5, 5 mg/kg/d", "result": "40.2 ± 3.5", "unit": "g"}, {"measurement": "Weight at necropsy (% change from E0.5)", "setting": "E11.5, 5 mg/kg/d", "result": "29.6±6.3", "unit": "%"}, {"measurement": "E0.5 weight", "setting": "E11.5 group, 1 mg/kg/d", "result": "31.2 ± 3", "unit": "g"}, {"measurement": "E0.5 weight", "setting": "E11.5 group, 5 mg/kg/d", "result": "31.1 ± 3.2", "unit": "g"}, {"measurement": "Kidney weight", "setting": "E17.5, 1 mg/kg/d", "result": "0.22 ± 0.04", "unit": "g"}, {"measurement": "Liver weight", "setting": "E17.5, 1 mg/kg/d", "result": "3.1 ± 0.4", "unit": "g"}, {"measurement": "Relative kidney weight", "setting": "E17.5, 1 mg/kg/d", "result": "0.40±0.04", "unit": "% BW"}, {"measurement": "Relative liver weight", "setting": "E17.5, 1 mg/kg/d", "result": "5.6±0.5", "unit": "% BW"}, {"measurement": "Weight at necropsy", "setting": "E17.5, 1 mg/kg/d", "result": "54.6 ± 5.3", "unit": "g"}, {"measurement": "Weight at necropsy (% change from E0.5)", "setting": "E17.5, 1 mg/kg/d", "result": "92.6±17.1", "unit": "%"}, {"measurement": "Kidney weight", "setting": "E17.5, 5 mg/kg/d", "result": "0.24 ± 0.03", "unit": "g"}, {"measurement": "Liver weight", "setting": "E17.5, 5 mg/kg/d", "result": "5.3 ± 0.5", "unit": "g"}, {"measurement": "Relative kidney weight", "setting": "E17.5, 5 mg/kg/d", "result": "0.40±0.03", "unit": "% BW"}, {"measurement": "Relative liver weight", "setting": "E17.5, 5 mg/kg/d", "result": "9.3±0.7", "unit": "% BW"}, {"measurement": "Weight at necropsy", "setting": "E17.5, 5 mg/kg/d", "result": "57.4 ± 6.0", "unit": "g"}, {"measurement": "Weight at necropsy (% change from E0.5)", "setting": "E17.5, 5 mg/kg/d", "result": "98.7±20.2", "unit": "%"}, {"measurement": "E0.5 weight", "setting": "E17.5 group, 1 mg/kg/d", "result": "28.5 ± 3.8", "unit": "g"}, {"measurement": "E0.5 weight", "setting": "E17.5 group, 5 mg/kg/d", "result": "29.1 ± 3.4", "unit": "g"}, {"measurement": "Relative GWG, E11.5 estimate (95% CI)", "setting": "1 mg/kg/d", "result": "16.2 (-0.2, 32.5) % gain from embryonic day 0.5"}, {"measurement": "Relative GWG, E17.5 Estimate (95% CI)", "setting": "1 mg/kg/d", "result": "44.9 (6.5, 83.3) % gain from embryonic day 0.5"}, {"measurement": "Relative GWG, E11.5 Estimate (95% CI) relative to VC", "setting": "5 mg/kg/d", "result": "4.3 (-1.8, 10.5) % gain from embryonic day 0.5"}, {"measurement": "Relative GWG, E11.5 estimate (95% CI)", "setting": "5 mg/kg/d", "result": "21.6 (5.4, 37.9) % gain from embryonic day 0.5"}, {"measurement": "Relative GWG, E17.5 Estimate (95% CI)", "setting": "5 mg/kg/d", "result": "50.7 (12.2, 89.0) % gain from embryonic day 0.5"}, {"measurement": "Relative GWG, E11.5 Estimate (95% CI) relative to VC", "setting": "5 mg/kg/d, 5 mg/kg/day", "result": "14.5 (1.4, 27.5) % gain from embryonic day 0.5 and 14.5 % gain from embryonic day 0.5"}, {"measurement": "Relative GWG, E11.5 Estimate (95% CI) relative to VC", "setting": "fourth column (after E17.5 estimate), 1 mg/kg/d", "result": "8.7 (-4.3, 21.8) % gain from embryonic day 0.5"}, {"measurement": "Relative GWG, E11.5 Estimate (95% CI) relative to VC", "setting": "second column, 1 mg/kg/d", "result": "-1.1 (-7.4, 5.1) % gain from embryonic day 0.5"}]}
